According to the CombiSolv-Exp solvation set (Vermeire and Green 2021):

Test: solvent given as SMILES

Q: With `CCCN(CC1CC1)c1c([N+](=O)[O-])cc(C(F)(F)F)cc1[N+](=O)[O-]` as the compound, how does the “solvation free energy, 298 K” value (in O) read?
A: -2.45 kcal/mol

Q: Which “solvation free energy, 298 K” value (in O) does the source give for `CCCOC(=O)c1ccccc1O` here?
A: -3.66 kcal/mol

Q: For `Cc1cccs1`, which “solvation free energy, 298 K” value (in O) is on record?
A: -1.38 kcal/mol

Q: For `CNCCc1ccc(O)cc1`, which “solvation free energy, 298 K” value (in C=CCCCCCCC=C) is on record?
A: -9.48 kcal/mol

Q: What about the “solvation free energy, 298 K” value (in O) of the same compound?
A: -11.9 kcal/mol

Q: Which “solvation free energy, 298 K” value (in O) does the source give for `CCNc1nc(NCC)nc(OC)n1` here?
A: -10.6 kcal/mol

Q: For `CCc1cccs1`, which “solvation free energy, 298 K” value (in O) is on record?
A: -0.93 kcal/mol

Q: For `COC(=O)c1ccc([N+](=O)[O-])cc1`, which “solvation free energy, 298 K” value (in CN(C)C=O) is on record?
A: -10.8 kcal/mol

Q: What about the “solvation free energy, 298 K” value (in O) of the same compound?
A: -6.76 kcal/mol

Q: What does the source list for `OC(CCl)CCl`?
A: solvation free energy, 298 K (in CCCCOC(C)=O): -7.58 kcal/mol; solvation free energy, 298 K (in Clc1ccccc1): -6.02 kcal/mol

Q: With `CC1CCC(C)(C)C1` (stereo not given) as the compound, how does the “solvation free energy, 298 K” value (in O) read?
A: 2.47 kcal/mol

Q: For `CC(=O)N1CCCC1`, which “solvation free energy, 298 K” value (in O) is on record?
A: -9.8 kcal/mol

Q: For `CCCCCCCCCC(C)C`, which “solvation free energy, 298 K” value (in O) is on record?
A: 4.04 kcal/mol

Q: Which “solvation free energy, 298 K” value (in O) does the source give for `CCCCCCCCCOC(=O)c1ccccc1C(=O)OCCCC` here?
A: -6.67 kcal/mol

Q: Which results are given for `O=C(O)CCCCCCCCC(=O)O`?
A: solvation free energy, 298 K (in CCC(C)O): -17 kcal/mol; solvation free energy, 298 K (in CCCCCCO): -16.7 kcal/mol; solvation free energy, 298 K (in CCCCCO): -16.9 kcal/mol; solvation free energy, 298 K (in CCCCO): -17.1 kcal/mol; solvation free energy, 298 K (in CCCO): -17.2 kcal/mol

Q: With `Oc1ccc(I)cc1` as the compound, how does the “solvation free energy, 298 K” value (in O) read?
A: -7.61 kcal/mol

Q: Which results are given for `CCCCCC#N`?
A: solvation free energy, 298 K (in CCCCCCCCCCCCCCCC): -4.68 kcal/mol; solvation free energy, 298 K (in CCCCCCCCO): -5.54 kcal/mol; solvation free energy, 298 K (in O): -3.28 kcal/mol; solvation free energy, 298 K (in [2H]O[2H]): -3.25 kcal/mol

Q: What does the source list for `COC(=O)c1ccc(O)cc1`?
A: solvation free energy, 298 K (in C1CCOC1): -12.5 kcal/mol; solvation free energy, 298 K (in C1COCCO1): -12.3 kcal/mol; solvation free energy, 298 K (in CC(C)(C)O): -12.2 kcal/mol; solvation free energy, 298 K (in CC(C)=O): -12.3 kcal/mol; solvation free energy, 298 K (in CC(C)CO): -12 kcal/mol; solvation free energy, 298 K (in CCC(C)O): -12.2 kcal/mol; solvation free energy, 298 K (in CCCCCC): -7.42 kcal/mol; solvation free energy, 298 K (in CCCCCCCCCCO): -11.4 kcal/mol; solvation free energy, 298 K (in CCCCCCO): -11.9 kcal/mol; solvation free energy, 298 K (in CCCCCO): -12 kcal/mol; solvation free energy, 298 K (in CCCCO): -12.1 kcal/mol; solvation free energy, 298 K (in CCCCOC(C)=O): -11.8 kcal/mol; solvation free energy, 298 K (in CCCCOCCCC): -10.7 kcal/mol; solvation free energy, 298 K (in CCCO): -12.2 kcal/mol; solvation free energy, 298 K (in CCOC(C)=O): -11.9 kcal/mol; solvation free energy, 298 K (in CCOCC): -11.7 kcal/mol; solvation free energy, 298 K (in CNC=O): -12.7 kcal/mol; solvation free energy, 298 K (in COC(C)(C)C): -11.8 kcal/mol; solvation free energy, 298 K (in NC=O): -12.1 kcal/mol; solvation free energy, 298 K (in O): -9.35 kcal/mol

Q: Which “solvation free energy, 298 K” value (in CCCCCC) does the source give for `CNC` here?
A: -2.48 kcal/mol

Q: And the “solvation free energy, 298 K” value (in CCCCCCCCCC)?
A: -2.31 kcal/mol

Q: What about the “solvation free energy, 298 K” value (in CCCCCCCCO) of the same compound?
A: -2.73 kcal/mol

Q: And the “solvation free energy, 298 K” value (in CCCO)?
A: -2.99 kcal/mol

Q: And the “solvation free energy, 298 K” value (in CCO)?
A: -3.27 kcal/mol

Q: And the “solvation free energy, 298 K” value (in CN(C)C=O)?
A: -2.88 kcal/mol

Q: What about the “solvation free energy, 298 K” value (in CO) of the same compound?
A: -3.51 kcal/mol

Q: And the “solvation free energy, 298 K” value (in ClC(Cl)(Cl)Cl)?
A: -2.88 kcal/mol

Q: What about the “solvation free energy, 298 K” value (in N#Cc1ccccc1) of the same compound?
A: -2.8 kcal/mol

Q: And the “solvation free energy, 298 K” value (in O)?
A: -4.3 kcal/mol

Q: With `c1ccc2c(c1)Cc1ccccc1C2` as the compound, how does the “solvation free energy, 298 K” value (in O) read?
A: -3.78 kcal/mol

Q: For `II`, which “solvation free energy, 298 K” value (in Brc1ccccc1) is on record?
A: -6.1 kcal/mol

Q: And the “solvation free energy, 298 K” value (in CC(C)CC(C)(C)C)?
A: -4.5 kcal/mol

Q: What about the “solvation free energy, 298 K” value (in CCCCCC) of the same compound?
A: -4.67 kcal/mol

Q: And the “solvation free energy, 298 K” value (in CCCCCCC)?
A: -4.66 kcal/mol

Q: What about the “solvation free energy, 298 K” value (in CCCCCl) of the same compound?
A: -5.63 kcal/mol

Q: And the “solvation free energy, 298 K” value (in CCO)?
A: -6.27 kcal/mol

Q: And the “solvation free energy, 298 K” value (in Cc1ccc(C)cc1)?
A: -6.21 kcal/mol

Q: And the “solvation free energy, 298 K” value (in Cc1cccc(C)c1)?
A: -6.25 kcal/mol

Q: And the “solvation free energy, 298 K” value (in Cc1ccccc1C)?
A: -6.23 kcal/mol

Q: What about the “solvation free energy, 298 K” value (in ClC(Cl)(Cl)Cl) of the same compound?
A: -5.25 kcal/mol

Q: What about the “solvation free energy, 298 K” value (in ClC(Cl)Cl) of the same compound?
A: -5.73 kcal/mol

Q: And the “solvation free energy, 298 K” value (in ClCCCl)?
A: -5.72 kcal/mol

Q: What about the “solvation free energy, 298 K” value (in ClCCl) of the same compound?
A: -5.62 kcal/mol

Q: What about the “solvation free energy, 298 K” value (in Clc1ccccc1) of the same compound?
A: -5.81 kcal/mol

Q: What about the “solvation free energy, 298 K” value (in O) of the same compound?
A: -2.54 kcal/mol

Q: For `Clc1c(Cl)c(Cl)c2ccccc2c1Cl`, which “solvation free energy, 298 K” value (in CCCCCCCCC=CCCCCCCCC(=O)OCC(COC(=O)CCCCCCCC=CCCCCCCCC)OC(=O)CCCCCCCC=CCCCCCCCC) is on record?
A: -9.56 kcal/mol

Q: What about the “solvation free energy, 298 K” value (in O) of the same compound?
A: -2.69 kcal/mol

Q: What does the source list for `C=CCCCCCCCC`?
A: solvation free energy, 298 K (in CN(C)C=O): -5.12 kcal/mol; solvation free energy, 298 K (in O): 2.24 kcal/mol; solvation free energy, 298 K (in OCCOCCO): -3.32 kcal/mol; solvation free energy, 298 K (in OCCOCCOCCO): -3.58 kcal/mol; solvation free energy, 298 K (in OCCOCCOCCOCCO): -3.78 kcal/mol

Q: Which “solvation free energy, 298 K” value (in NC=O) does the source give for `CCCCCCCCC=O` here?
A: -4.37 kcal/mol

Q: And the “solvation free energy, 298 K” value (in O)?
A: -2.08 kcal/mol

Q: With `COc1cc(NS(=O)(=O)c2ccc(N)cc2)nc(OC)n1` as the compound, how does the “solvation free energy, 298 K” value (in O) read?
A: -18.9 kcal/mol

Q: Which “solvation free energy, 298 K” value (in O) does the source give for `CCCCNCc1ccc(C)cc1` here?
A: -5.47 kcal/mol

Q: With `O=Nc1c(O)ccc2ccccc12` as the compound, how does the “solvation free energy, 298 K” value (in O) read?
A: -7.31 kcal/mol

Q: With `FC(F)C(F)Oc1ccccc1` (stereo not given) as the compound, how does the “solvation free energy, 298 K” value (in O) read?
A: -1.29 kcal/mol

Q: With `CCNc1nc(NCC)nc(SC)n1` as the compound, how does the “solvation free energy, 298 K” value (in O) read?
A: -10.1 kcal/mol

Q: For `CCCCN(CCCC)N=O`, which “solvation free energy, 298 K” value (in CC(C)CC(C)(C)C) is on record?
A: -7.84 kcal/mol

Q: What about the “solvation free energy, 298 K” value (in O) of the same compound?
A: -4.91 kcal/mol

Q: For `O=Cc1ccncc1`, which “solvation free energy, 298 K” value (in O) is on record?
A: -7 kcal/mol

Q: For `CC=O`, which “solvation free energy, 298 K” value (in CC(=O)N(C)C) is on record?
A: -3.22 kcal/mol

Q: What about the “solvation free energy, 298 K” value (in CC(C)CCCC(C)CCCC(C)CCCCC(C)CCCC(C)CCCC(C)C) of the same compound?
A: -2.26 kcal/mol

Q: And the “solvation free energy, 298 K” value (in CCCCCCCCCCCCCCCC)?
A: -1.51 kcal/mol

Q: What about the “solvation free energy, 298 K” value (in CCCCCCCCO) of the same compound?
A: -3.65 kcal/mol

Q: What about the “solvation free energy, 298 K” value (in CCCCN(C=O)CCCC) of the same compound?
A: -2.78 kcal/mol

Q: What about the “solvation free energy, 298 K” value (in CCN1CCCC1=O) of the same compound?
A: -3.05 kcal/mol

Q: And the “solvation free energy, 298 K” value (in CCN(CC)C(C)=O)?
A: -3.06 kcal/mol

Q: What about the “solvation free energy, 298 K” value (in CCNC(C)=O) of the same compound?
A: -2.73 kcal/mol

Q: What about the “solvation free energy, 298 K” value (in CN1CCCCC1=O) of the same compound?
A: -3.04 kcal/mol

Q: What about the “solvation free energy, 298 K” value (in CNC(C)=O) of the same compound?
A: -2.85 kcal/mol

Q: What about the “solvation free energy, 298 K” value (in CO) of the same compound?
A: -4.83 kcal/mol

Q: What about the “solvation free energy, 298 K” value (in O) of the same compound?
A: -3.44 kcal/mol
